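Cells were grown in 96-well plates and exposed to each compound for 48 hours at five concentrations; endpoints were interpolated linearly between bracketing concentrations, or set to the highest concentration if not reached. GI50 marks 50% less growth.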 Activity calls are given as the source filed them. Rule as the data show it: active = GI50 up to about 1.1 µM and inactive = higher. Residues, ends and D or L forms follow the SMILES beside them.
Tests used:
Assay in all cases: growth of human tumour cells (NCI), 48 h
SNB-75 = tested on: SNB-75
SNB-19 = tested on: SNB-19
UACC-257 = tested on: UACC-257
HCT-15 = tested on: HCT-15
OVCAR-4 = tested on: OVCAR-4
T47D = tested on: T47D
U-251 = tested on: U-251
EKVX = tested on: EKVX
NCI-H23 = tested on: NCI-H23
SK-MEL-2 = tested on: SK-MEL-2
IGROV-1 = tested on: IGROV-1
MCF7 = tested on: MCF7
CCRF-CEM = tested on: CCRF-CEM
A549 = tested on: A549
PC-3 = tested on: PC-3
SN12C = tested on: SN12C
CAKI-1 = tested on: CAKI-1

| Compound | GI50 (SNB-75) | GI50 (SNB-19) | GI50 (UACC-257) | GI50 (HCT-15) [µM] | GI50 (OVCAR-4) | GI50 (T47D) | GI50 (U-251) | GI50 (EKVX) | GI50 (NCI-H23) | GI50 (SK-MEL-2) | GI50 (IGROV-1) | GI50 (MCF7) | GI50 (CCRF-CEM) | GI50 (A549) | GI50 (PC-3) | GI50 (SN12C) | GI50 (CAKI-1) |
| --- | --- | --- | --- | --- | --- | --- | --- | --- | --- | --- | --- | --- | --- | --- | --- | --- | --- |
| C(=N/Nc1ccccn1)/c1cccnc1 | 58.6 µM (inactive) | > 100 µM (inactive) | 89.3 µM (inactive) | > 100 | 98.9 µM (inactive) | > 100 µM (inactive) | > 100 µM (inactive) | 49.4 µM (inactive) | 75 µM (inactive) | > 100 µM (inactive) | > 100 µM (inactive) | 43.9 µM (inactive) | > 100 µM (inactive) | > 100 µM (inactive) | > 100 µM (inactive) | > 100 µM (inactive) | > 100 µM (inactive) |
| CCCCc1ccc(Nc2nc(Cl)c3c(ncn3COCCOC(C)=O)n2)cc1 | 2.2 µM (inactive) | 20.9 µM (inactive) | 17.1 µM (inactive) | 16.3 | 24.8 µM (inactive) | 17.8 µM (inactive) | 22.9 µM (inactive) | 19.8 µM (inactive) | 18.7 µM (inactive) | 19.1 µM (inactive) | 19.2 µM (inactive) | 22.5 µM (inactive) | 28.2 µM (inactive) | 19 µM (inactive) | 20.9 µM (inactive) | 19.3 µM (inactive) | 25.9 µM (inactive) |
| COc1ccc(-n2c(=O)n(-c3ccccc3)c(=O)n2-c2ccc(OC)cc2)cc1 | > 100 µM (inactive) | > 100 µM (inactive) | > 100 µM (inactive) | > 100 | > 100 µM (inactive) | > 100 µM (inactive) | > 100 µM (inactive) | > 100 µM (inactive) | > 100 µM (inactive) | > 100 µM (inactive) | > 100 µM (inactive) | > 100 µM (inactive) | > 100 µM (inactive) | > 100 µM (inactive) | > 100 µM (inactive) | > 100 µM (inactive) | 1.78 µM (inactive) |
| CC(=O)N1c2ccccc2C23CCN4CC5=CCOC(O)C(C5CC42)C13 (centres undefined) | > 100 µM (inactive) | > 100 µM (inactive) | > 100 µM (inactive) | > 100 | > 100 µM (inactive) | > 100 µM (inactive) | > 100 µM (inactive) | > 100 µM (inactive) | > 100 µM (inactive) | > 100 µM (inactive) | > 100 µM (inactive) | > 100 µM (inactive) | > 100 µM (inactive) | > 100 µM (inactive) | > 100 µM (inactive) | > 100 µM (inactive) | > 100 µM (inactive) |
| CCC[C@@H](O)C[C@@H]1CCC[C@H](C[C@@H](O)CC)N1C | – | > 100 µM (inactive) | > 100 µM (inactive) | > 100 | > 100 µM (inactive) | > 100 µM (inactive) | > 100 µM (inactive) | 29.7 µM (inactive) | > 100 µM (inactive) | > 100 µM (inactive) | > 100 µM (inactive) | > 100 µM (inactive) | > 100 µM (inactive) | > 100 µM (inactive) | > 100 µM (inactive) | > 100 µM (inactive) | > 100 µM (inactive) |
| CCOC(=O)C(C(=S)SC)c1nn2c(=O)cc(C)nc2s1 (centres undefined) | 20.7 µM (inactive) | 21.3 µM (inactive) | 21 µM (inactive) | 20.3 | 23.7 µM (inactive) | 19 µM (inactive) | 16 µM (inactive) | 18.8 µM (inactive) | 20.6 µM (inactive) | 20.8 µM (inactive) | 19.6 µM (inactive) | 17.1 µM (inactive) | 29.4 µM (inactive) | 19.5 µM (inactive) | 20.9 µM (inactive) | 16.2 µM (inactive) | 19.9 µM (inactive) |
| CC(=O)OCC1OC(n2c(-c3ccccc3)c(C(C)=O)c(-c3ccc(Cl)cc3)c(C#N)c2=S)C(OC(C)=O)C(OC(C)=O)C1OC(C)=O (centres undefined) | 32.3 µM (inactive) | > 100 µM (inactive) | > 100 µM (inactive) | 11.6 | 83.8 µM (inactive) | > 100 µM (inactive) | > 100 µM (inactive) | > 100 µM (inactive) | > 100 µM (inactive) | < 0.01 µM (active) | > 100 µM (inactive) | > 100 µM (inactive) | 29.9 µM (inactive) | > 100 µM (inactive) | 1.93 µM (inactive) | > 100 µM (inactive) | 99.8 µM (inactive) |
| Cc1noc(NS(=O)(=O)c2ccc(NC(=O)c3ccc4nc5ccccc5c(Nc5ccc(S(=O)(=O)Nc6onc(C)c6C)cc5)c4c3)cc2)c1C | > 100 µM (inactive) | > 100 µM (inactive) | > 100 µM (inactive) | 58.1 | > 100 µM (inactive) | 40.2 µM (inactive) | > 100 µM (inactive) | > 100 µM (inactive) | > 100 µM (inactive) | > 100 µM (inactive) | > 100 µM (inactive) | 45.6 µM (inactive) | 42.7 µM (inactive) | > 100 µM (inactive) | > 100 µM (inactive) | > 100 µM (inactive) | > 100 µM (inactive) |
| CCOC(=O)c1ccc(NC(=O)O/N=C(/Cl)CCl)cc1 | 4.01 µM (inactive) | 86.1 µM (inactive) | 44.6 µM (inactive) | 5.57 | 71.1 µM (inactive) | 34.1 µM (inactive) | 39.4 µM (inactive) | 23.5 µM (inactive) | 78.5 µM (inactive) | 60.5 µM (inactive) | > 100 µM (inactive) | 34.8 µM (inactive) | 21.5 µM (inactive) | 37.1 µM (inactive) | 33.6 µM (inactive) | 84.9 µM (inactive) | > 100 µM (inactive) |
| CN(C)CCCNc1nnc(NCCCN(C)C)c2c(=O)c3sccc3[nH]c12 | 6.73 µM (inactive) | 31.7 µM (inactive) | 22.4 µM (inactive) | 6.62 | 5.42 µM (inactive) | 19.4 µM (inactive) | 22.2 µM (inactive) | 8.91 µM (inactive) | 10.8 µM (inactive) | 18.4 µM (inactive) | 5.69 µM (inactive) | 5.64 µM (inactive) | 9.48 µM (inactive) | 5.41 µM (inactive) | 6.01 µM (inactive) | 3.19 µM (inactive) | 5.05 µM (inactive) |
| Cc1ccc(S(=O)(=O)[N-]C2C(=O)c3ccccc3C(=O)C2[n+]2cccc(C(N)=O)c2)cc1 (centres undefined) | > 100 µM (inactive) | > 100 µM (inactive) | > 100 µM (inactive) | > 100 | 26.9 µM (inactive) | 24 µM (inactive) | > 100 µM (inactive) | > 100 µM (inactive) | > 100 µM (inactive) | > 100 µM (inactive) | > 100 µM (inactive) | > 100 µM (inactive) | > 100 µM (inactive) | > 100 µM (inactive) | > 100 µM (inactive) | 30.3 µM (inactive) | 40.9 µM (inactive) |
| Nc1c2c(nc3ccccc13)-c1ccccc1CCC2 | 10.2 µM (inactive) | 17.7 µM (inactive) | 5.94 µM (inactive) | 14.3 | 14.4 µM (inactive) | 13.2 µM (inactive) | 15 µM (inactive) | 17.3 µM (inactive) | 15.7 µM (inactive) | 15 µM (inactive) | 14.1 µM (inactive) | 13.6 µM (inactive) | 13.5 µM (inactive) | 13.8 µM (inactive) | 15.1 µM (inactive) | 16.3 µM (inactive) | 14.4 µM (inactive) |
| C=C(C)[C@@H]1CC[C@]2(C(=O)O)CC[C@]3(C)[C@H](CCC4[C@@]5(C)CC[C@H](C(=O)/C=C/c6ccc(O)c(O)c6)C(C)(C)[C@@H]5CC[C@]43C)[C@@H]12 (some centres undefined) | 0.0513 µM (active) | 11.9 µM (inactive) | 2.81 µM (inactive) | 3.31 | 10.4 µM (inactive) | 5.14 µM (inactive) | – | 8.55 µM (inactive) | 2.61 µM (inactive) | 12.6 µM (inactive) | 4.24 µM (inactive) | 4.04 µM (inactive) | 2.42 µM (inactive) | 2.58 µM (inactive) | 4.32 µM (inactive) | 5.02 µM (inactive) | 3.66 µM (inactive) |
| CC(CC(C)[C@H]1CCC2[C@H]3C(CC(=O)[C@@]21C)[C@@]1(C)CCC(O)C[C@H]1C[C@@H]3O)C(=O)O (some centres undefined) | > 100 µM (inactive) | > 100 µM (inactive) | > 100 µM (inactive) | 77.3 | > 100 µM (inactive) | > 100 µM (inactive) | > 100 µM (inactive) | > 100 µM (inactive) | > 100 µM (inactive) | > 100 µM (inactive) | > 100 µM (inactive) | 92.3 µM (inactive) | 43.4 µM (inactive) | > 100 µM (inactive) | > 100 µM (inactive) | > 100 µM (inactive) | > 100 µM (inactive) |
| C=C1C(=O)OC2CC3(C)CCCC(C)C3=CC12 (centres undefined) | 2.64 µM (inactive) | 13.1 µM (inactive) | 5.38 µM (inactive) | 2.1 | 4.03 µM (inactive) | 2.88 µM (inactive) | 7 µM (inactive) | 5.3 µM (inactive) | 6.04 µM (inactive) | 10.4 µM (inactive) | 10.1 µM (inactive) | 1.78 µM (inactive) | 1.21 µM (inactive) | 12.6 µM (inactive) | 14.8 µM (inactive) | 3.3 µM (inactive) | 3.09 µM (inactive) |
| CCC(C)C(NC(=O)C1CCCN1)C(=O)NC(C(=O)NCC(=O)NC(CC(N)=O)C(=O)NC(CC(C)C)C(=O)NC(CC(C)C)C(=O)NC(CCCCN)C(N)=O)C(C)C (centres undefined) (H-PIVGNLLK-NH2; configuration not given here) | – | > 75 µM (inactive) | > 75 µM (inactive) | > 75 | > 75 µM (inactive) | > 75 µM (inactive) | > 75 µM (inactive) | > 75 µM (inactive) | > 75 µM (inactive) | > 75 µM (inactive) | > 75 µM (inactive) | > 75 µM (inactive) | > 75 µM (inactive) | > 75 µM (inactive) | > 75 µM (inactive) | > 75 µM (inactive) | > 75 µM (inactive) |
